This note sets out measurements from patent US9572820B2, “Methods of treating autophagy-associated disorders and related pharmaceutical compositions, diagnostics, screening techniques and kits” (priority 2011, dated 2017).

One experiment concerns BMM. Description: Confocal quantification of cells positive for LC3 and IL-1α puncta. It counts as cell-based, murine. To be noted: Atg5+ BMM, LPS+IFN-γ, 90 min EBSS. How it is done:
(A,B) IL-1α (ELISA) released from LPS+IFN-γ stimulated Atg5^fl/fl LysM-Cre+ and Atg5^fl/fl LysM-Cre− BMM in the presence of 50 μg/ml rapamycin (Rap), 10 mM 3-MA, or 100 nM Bafilomycin A1 (Baf A1) after 12 h of stimulation. (C) IL-1α (ELISA) in culture supernatants of cells as in A, treated with calpain inhibitor, ALLN (100 μM). (D-F) Images and quantification of cells positive for LC3-only, IL-1α-only or LC3+IL-1α. Cells, wild type (Atg5+) BMM stimulated with LPS+IFN-γ and incubated for 90 min in EBSS in the absence (D, control) or presence (E, Baf A1) of bafilomycin A1. Cutoff for cells to be considered positive: >6 red or green puncta. Red arrowheads, IL-1α+ LC3− cells; green arrowheads, IL-1α− LC3+ cells; 10 μm.
For confocal microscopy, BMM were stained with mouse anti-GFP (Abeam, 10 μg/ml) to enhance LC3-GFP visualization, rabbit anti-caspase 1 (Santa Cruz Biotechnology), rabbit anti-calpain 1 (Cell Signaling Technology), or hamster anti-IL-1α (eBioscience) followed by secondary antibodies. Pearson's colocalization coefficients were derived using SLIDEBOOK 5.0 (Intelligent Imaging Innovations) applying the SLIDEBOOK 5 default algorithm command ‘AND’. All Pearson's coefficients were derived from three independent experiments with five fields or more per experiment, for a total of 15 fields contributing to the cumulative result.

The next experiment relates to pro-IL-1β. Description: Expression of pro-IL-1β in BMMs. The experiment is classed as cell-based, murine. Particulars: cells treated with bafilomycin A1 or CA-074 Me. Here is the method: To induce pro-IL-1β expression, cells were pretreated overnight with 100 ng/ml LPS (Sigma). Inflammasome was induced with […] nigericin (Sigma) for 1 h or with […] Alum (Thermoscientific) for 1 h or with […] silica crystals (MIN-U-SIL-15, US Silica) for 1 h or with […] Amyloid-b peptide (Ab; American Peptide Company) fibrils prepared as described (Moore et al, 2002). […] Starvation and other treatments (except for macrophage priming with LPS done in advance) were carried out concurrently (i.e., initiated at the same time).
For all conditions, cell-free supernatants were assayed by immunoblotting after TCA precipitation for mouse IL-1β p17 (R&D), caspase-1 p10 (Santa Cruz Biotechnology), HMGB1 (Abcam) and Cathepsin B (R&D) or by ELISA for mouse IL-1β (R&D), IL-18 (MBL), and HMGB1 (IBL). Immunofluorescence confocal microscopy was carried out using a Zeiss LSM 510 Meta microscope (laser wavelengths 488, 543, and 633 nm). Antibodies against endogenous proteins IL-1β (Abcam), Sec6 (Shu C Hsu, Rutgers University, NJ, USA), Cathepsin B (R&D), Rab8a (Abcam), GORASP1 (Novus), GORASP2 (ProteinTech Group), GM130 (BD), LC3 (MBL) and GFP (Abcam; for BMMs from GFP-LC3 knock-in transgenic mice) were used for indirect immunofluorescence analysis. […]

Turning to `CO/C1=C\C(C)=C\[C@@H](C)[C@@H](O)[C@@H](C)C/C(C)=C/C=C/[C@H](OC)[C@@H]([C@@H](C)[C@@H](O)[C@H](C)[C@@]2(O)C[C@@H](O)[C@H](C)[C@@H](C(C)C)O2)OC1=O` [bafilomycin A1], the “number of cells positive for both IL-1α and LC3” value in the experiment on BMM is “increased”. Besides, the “expression of pro-IL-1β” value in the experiment with pro-IL-1β was “No differences”.
